Test results published in paper PMC6474902, “Examination of novel 4-aminoquinoline derivatives designed and synthesized by a hybrid pharmacophore approach to enhance their anticancer activities” (Scientific Reports, 2019).
Read-outs that look alike come from different tables or passages of the source.

How the values were obtained:
MCF7 = test: SRB antiproliferative/antigrowth assay; type: cell-based, human; details: for GI50: SRB, 48 h post-treatment, mean of triplicates of at least two experiments, read-out: GI50 MCF7
Experimental: (§1) The antigrowth effects of 4-piperazinylquinoline sulfonyl analogs on human breast tumor cells was initially evaluated using MDA-MB468 (a PTEN defective, EGFR positive breast adenocarcioma), MDA-MB231 (p53 and pRB mutated, triple-negative breast carcinoma), and MCF7 (p53+/−, invasive ductal breast carcinoma) cell lines. In addition, the cytotoxicity of all the compounds was also evaluated with the 184B5 and MCF10A non-cancer immortalized breast epithelial cell lines, to determine if these newly synthesized compounds have differential cytotoxic effects on cancer and non-cancer cells. The panel of three breast cancer cell lines with different genetic back ground and the well-studied two non-cancer immortalized breast cell lines would provide insights into the efficacy and toxicity of the test compounds in the different genetic background and at different stages of tumor development. The dose response of each cell line was established by determining the number of viable cells after 48 h of continuous drug treatment against seven different concentrations (100 µM to 0.0064 µM) of each compound. The reading of sulphorodamine B (SRB) staining is known to accurately reflect the level of total cellular macromolecules/cell growth/proliferation[6],[23]. […] The data for CQ and cisplatin were included as references. […] The differences in the GI50 values may be attributable to such factors as the nature of the sulfonyl group and the halogen substitution on the 7th position of the 4-piperazinylquinoline ring system, and the genetic and biochemical background of the cell lines.
(§2) Antiproliferative/antigrowth effects were determined by a SRB-based protocol[6],[23]. For a typical screening experiment, 5,000–10,000 cells were inoculated into 100 µL medium per well of a 96-well microtiter plate as described previously. Briefly, after the inoculation, the microtiter plate was incubated at 37 °C, 5% CO2, 95% air and 100% relative humidity for 24 h, prior to addition of experimental drugs. Some of the sample wells were fixed with 25 µL of 50% tricholoroacetic acid (TCA) as a control of the cell population for each cell line at the time of drug addition (Tz). An aliquot of the frozen stock was thawed and diluted to a desired final maximum test-concentration with complete medium. Two to ten-fold serial dilutions were made to provide a total of seven drug concentrations (and a control [C]). Following addition of drugs, the culture plate was incubated for additional 48 h. Cells were fixed in situ by slowly adding 25 µL of ice-cold 50% (w/v) TCA (final concentration, 10% TCA), and were then incubated for 60 min at 4 °C. The supernatant was discarded, and the plate was washed five times with tap water, followed by air-dry. 50 µL of SRB solution at 0.4% (w/v) in 1% acetic acid was added to each well, and the plate was incubated for >30 min at room temperature. Unbound SRB was removed by five washes with tap water, followed by air-drying. The cells “stained” with SRB were solubilized with 10 mM trizma base, and the absorbance was read on an automated plate reader at a wavelength of 515–564 nm. The relative growth rate (%) was calculated for each of the compound concentrations according to the following formula: (Ti−Tz)/(C−Tz)×100
(§3) In the formula, time zero (Tz), control growth (C), and OD for different concentration of tested compounds (Ti). The GI50 for each compound was obtained from a non-linear Sigmoidal dose-response (variable slope) curve which is fitted by GraphPad Prism v.4.03 software. Values were calculated for each of these parameters if the level of activity was reached. However, if the effect was not reached or was exceeded, the value for that parameter was expressed as greater or less than the maximum or minimum concentration tested.

MDA-MB231 = test: SRB antiproliferative/antigrowth assay; type: cell-based, human; details: for GI50: SRB, 48 h post-treatment, mean of triplicates of at least two experiments, read-out: GI50 MB231
Experimental: as §1, §2, §3

MDA-MB468 = test: SRB antiproliferative/antigrowth assay; type: cell-based, human; details: SRB, 48 h post-treatment, mean of triplicates of at least two experiments, read-out: GI50 MB468
Experimental: as §1, §2, §3

184B5 = test: SRB antiproliferative/antigrowth assay, non-cancer cells; type: cell-based, human; details: SRB, 48 h post-treatment, non-cancer breast epithelial cells, read-out: GI50 184B5
Experimental: as §1, §2, §3

MCF10A = test: as above; type: cell-based, human; details: SRB, 48 h post-treatment, non-cancer breast epithelial cells, read-out: GI50 MCF10A
Experimental: as §1, §2, §3

Row | Compound | GI50 (MCF7; Homo sapiens, MCF7, 48 h) [µM] | increase in antigrowth activity on MDA-MB231 in comparison to methyl substituted compound 16 (MDA-MB231) [fold] | GI50 (MDA-MB231; Homo sapiens, MDA-MB-231, 48 h) [µM] | GI50 (MDA-MB468; Homo sapiens, MDA-MB-468, 48 h) [µM] | GI50 (184B5; Homo sapiens, 184B5, 48 h) [µM] | GI50 (MCF10A; Homo sapiens, MCF-10A, 48 h) [µM] | melting point [°C] | increase in potency on MDA-MB231 in comparison to methyl substituted compounds (25 and 34) (MDA-MB231) | GI50 (MCF7) [µM] | more effective than cisplatin (MCF7) (MCF7; ratio of GI50 values) [fold] | GI50 (MDA-MB231) [µM] | more effective than cisplatin (MDA-MB231) (MDA-MB231; ratio of GI50 values) [fold] | GI50 (MDA-MB468) [µM] | GI50 (184B5) [µM] | GI50 (MCF10A) [µM]
1 | O=S(=O)(c1ccc(Cl)cc1Cl)N1CCN(c2ccnc3cc(C(F)(F)F)ccc23)CC1 [Compound 20, 4-[4-(2,4-Dichloro-benzenesulfonyl)-piperazin-1-yl]-7-trifluoromethyl-quinoline] | 16.7 ± 0.2 | 2 | 20.3 ± 0.5 | 18.6 ± 0.5 | 20.4 ± 0.2 | 15.6 ± 0.2 | 137 to 139 | – | – | – | – | – | – | – | –
2 | CN(C)c1cccc2c(S(=O)(=O)N3CCN(c4ccnc5cc(C(F)(F)F)ccc45)CC3)cccc12 [Compound 23, Dimethyl-{5-[4-(7-trifluoromethyl-quinolin-4-yl)-piperazine-1-sulfonyl]-naphthalen-1-yl}-amine] | 12.9 ± 0.2 | – | 22.1 ± 0.6 | 19.1 ± 0.6 | 12 ± 0.2 | 15.4 ± 0.5 | 98 to 100 | – | – | – | – | – | – | – | –
3 | COC(=O)c1sccc1S(=O)(=O)N1CCN(c2ccnc3cc(C(F)(F)F)ccc23)CC1 [Compound 24, 3-[4-(7-Trifluoromethyl-quinolin-4-yl)-piperazine-1-sulfonyl]-thiophene-2-carboxylic acid methyl ester] | 16 ± 0.2 | – | 34.7 ± 0.7 | 23.9 ± 0.6 | 15.9 ± 0.1 | 15.8 ± 0.1 | 117 to 119 | – | – | – | – | – | – | – | –
4 | CS(=O)(=O)NCCCNc1ccnc2cc(Cl)ccc12 [Compound 25, N-[3-(7-Chloro-quinolin-4-ylamino)-propyl]-methanesulfonamide] | 23.1 ± 0.9 | – | 40.9 ± 1.5 | 28.6 ± 1 | 23.3 ± 0.9 | 39.1 ± 1.2 | – | – | – | – | – | – | – | – | –
5 | O=S(=O)(NCCCNc1ccnc2cc(Cl)ccc12)c1ccc(-c2ccccc2)cc1 [Compound 27, Biphenyl-4-sulfonic acid [3-(7-chloro-quinolin-4-ylamino)-propyl]-amide] | 2.5 ± 0.2 | – | 4.6 ± 0.4 | 4.5 ± 0.4 | 2.4 ± 0.1 | 2.6 ± 0.1 | 116 to 118 | – | – | – | – | – | – | – | –
6 | O=S(=O)(NCCCNc1ccnc2cc(Cl)ccc12)c1ccc(Cl)cc1 [Compound 28, 4-Chloro-N-(3-(7-chloroquinolin-4-ylamino)propyl)benzenesulfonamide] | 4.3 ± 0.3 | – | 11.8 ± 0.9 | 8.3 ± 0.7 | 6.4 ± 0.3 | 9.7 ± 0.1 | – | 3.5–4.4 fold | – | – | – | – | – | – | –
7 | O=S(=O)(NCCCNc1ccnc2cc(Cl)ccc12)c1ccc(Cl)cc1Cl [Compound 29, 2,4-Dichloro-N-[3-(7-chloro-quinolin-4-ylamino)-propyl]-benzenesulfonamide] | 4 ± 0.2 | – | 6.8 ± 0.6 | 3.6 ± 0.1 | 3.6 ± 0.2 | 6.8 ± 0.4 | 145 to 147 | – | – | – | – | – | – | – | –
8 | O=[N+]([O-])c1cccc(S(=O)(=O)NCCCNc2ccnc3cc(Cl)ccc23)c1 [Compound 30, N-(3-(7-chloroquinolin-4-ylamino)propyl)-3-nitrobenzenesulfonamide] | 8.6 ± 0.4 | – | 20.4 ± 1.2 | 9.2 ± 0.7 | 15.8 ± 0.9 | 31.1 ± 1.1 | – | – | – | – | – | – | – | – | –
9 | COC(=O)c1sccc1S(=O)(=O)NCCCNc1ccnc2cc(Cl)ccc12 [Compound 33, 3-[3-(7-Chloro-quinolin-4-ylamino)-propylsulfamoyl]-thiophene-2-carboxylic acid methyl ester] | 4.22 | – | 5.97 | 4.18 | 15.7 | 16.5 | – | – | 4.2 ± 0.2 | 6.1 | 6.1 ± 0.5 | 4.0 | 4.1 ± 0.3 | 15.7 ± 0.4 | 16.5 ± 0.8
